Molecular target: T1, GTP/GDP carrier (GGC) from yeast mitochondria (Saccharomyces cerevisiae, UniProt P38988)
T1 sequence (P38988 1-300): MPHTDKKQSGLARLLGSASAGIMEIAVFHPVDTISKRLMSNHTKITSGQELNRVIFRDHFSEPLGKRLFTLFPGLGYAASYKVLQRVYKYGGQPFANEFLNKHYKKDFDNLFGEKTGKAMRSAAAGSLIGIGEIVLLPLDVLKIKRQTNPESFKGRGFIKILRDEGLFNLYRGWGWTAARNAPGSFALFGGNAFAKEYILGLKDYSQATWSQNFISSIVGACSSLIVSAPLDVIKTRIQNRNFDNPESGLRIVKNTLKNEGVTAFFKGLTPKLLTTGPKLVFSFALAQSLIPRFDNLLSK
Assay: NMR chemical shift perturbation titration, 3D TROSY HNCO
Format: binding

SMILES	Kd [mM]
Nc1nc2c(ncn2[C@@H]2O[C@H](COP(=O)(O)OP(=O)(O)OP(=O)(O)O)[C@@H](O)[C@H]2O)c(=O)[nH]1 [GTP]	6.6
Nc1nc2c(ncn2[C@@H]2O[C@H](COP(=O)(O)OP(=O)(O)O)[C@@H](O)[C@H]2O)c(=O)[nH]1 [GDP]	23

From PMC4423559 (Angewandte Chemie (International ed. in English), 2015)
